Data on 1 substance can be found in patent US20170319661A1, “Methods and Pharmaceutical Compositions Using Orexins (OXA, OXB) for the Treatment of Prostate Cancers” (INSERM (Institut National de la Sante et de la Recherche …, priority 2014, published 2017).

Entries after “also recorded” stand apart in the source; their conditions may differ.

What all share (format): cell-based, human
In experiment [1] the test system is DU145 cells. As to the kind of experiment: Apo-ONE Homogeneous Caspase-3/7 apoptosis assay in DU145 cells (native or neuroendocrine-differentiated). To be noted: 10^-6 M, 3 days. The text has this: (§1) Two human-derived CaP cell lines were used, i.e. the androgen-responsive cell line LNCaP, and the androgen-unresponsive cell line DU145 as well as the colorectal adenocarcinoma HT-29 cell line. The three cell lines were purchased from American Type Culture Collection (ATCC, Rockville, Md.). The LNCaP cells were maintained in RPMI 1640 medium supplemented with 10% fetal bovine serum (FBS), 1% penicillin/streptomycin and 1% glutamine (complete medium). The DU145 cells were maintained in Dulbecco modified Eagle's minimal essential medium (DMEM) supplemented with 10% FBS and 1% penicillin/streptomycin (complete medium). The HT-29 cells were maintained in DMEM supplemented with 10% FBS, 1% penicillin/streptomycin and 1% glutamine. […]
(§2) Cell viability was determined by using the CellTiter-Blue® assay (Promega, Charbonnières, France). Cell apoptosis was quantified by evaluating the enzymatic activities of Caspase 3/7 by using the Apo-ONE® Homogeneous Caspase-3/7 Assay (promega). Briefly, the enzymes were measured in intact and differentiated DU145 culture cells after a 3-days incubation with OxA or OxB (10^-6M) in 96-well plates. The cells were incubated with fluorogenic peptide specific to caspase 3 and 7 enzymes, and detection of fluorescent product over time was monitored in a spectrofluorometer Flex Station 3 (Molecular Devices, St. Grégoire, France) at 485 nm excitation and 527 nm emission. […]

Experiment [2] relates to HT-29 cells. In words: Cell viability / growth of HT-29 cells.
Excerpt: as §1, §2

For experiment [3], the system named is HT-29 cells. As to the kind of experiment: Apo-ONE Homogeneous Caspase-3/7 apoptosis assay in HT-29 cells (positive control). To be noted: 10^-6 M.
Experiment [4] concerns DU145 cells. In words: CellTiter-Blue cell viability / growth of DU145 cells. To be noted: native DU145 cells, 10^-6 M, 3 days.
Excerpt: as §1, §2
Background: Resazurin is reduced to fluorescent resorufin, in cell work by metabolically active cells.

With Orexin-B [OxB], the “apoptosis (Caspase 3/7 activity)” value is recorded as “promote cell death” in the experiment with DU145 cells [1] (DU145 cells submitted to neuroendocrine differentiation (db-cAMP 1 mM/IBMX 0.1 mM)), “did not alter apoptosis; also recorded: has no effect on the apoptosis rate” in the experiment with DU145 cells [1] (native DU145 cells) and “promoted significantly the apoptosis” with HT-29 cells [3]. The cell growth result in the experiment with HT-29 cells [2] is reported as “inhibited cell growth”; in the experiment with DU145 cells [4], “increased cell growth”.
